Data published in patent US20230065740A1, “CYCLIN-DEPENDENT KINASE INHIBITORS” (SPV THERAPEUTICS INC., priority 2018, published 2023).
pIC50: −log10 of the molar value.

Columns and labels:
[1] = biological target: CDK1/B (Homo sapiens, UniProt P06493); assay: Additional inhibition assay, CDK1/B; format: biochemical
[2] = biological target: CDK4-CYCLIND1 (Homo sapiens, UniProt P11802); assay: Microfluidic LabChip kinase inhibition assay, CDK4-CyclinD1; details: CDK4 CyclinD1 IC50 (μM), 200 μM ATP, second value in parentheses on the next line
Procedure: Inhibition assays were performed using microfluidic LabChip 300 Drug Discovery System from Caliper Life Sciences. […] The assay has a total volume of 10 μL consisting of 5 μL of enzyme and buffer and 5 μL of substrate and buffer. The test compounds were diluted in 100% dimethylsulfoxide (DMSO) using 3-fold dilution steps. […] Compounds were tested in a single well for each dilution and the final concentration of DMSO was maintained at 1%.
The assay buffer contained 100 mM HEPES, pH 7.5, 0.01% Triton X-100, 0.1% bovine serum albumin (BSA), 5 mM MgCl2; 1 mM dithiothreitol (DTT), 10 μM sodium orthovanadate, and 10 μM β-glycerophosphate.
The assay was conducted by adding 5 μL of enzyme, adenosine triphosphate (ATP) and buffer to an assay plate. A 100 nL aliquot of the diluted compounds were added to the plate. The assay was initiated by the addition of 5 μL of phosphoenolpyruvate substrate (PEP) in buffer. […] The reaction was terminated by the addition of EDTA. The plates were analyzed using a Caliper LabChip 3000.

[3] = biological target: T1, CDK9-CYCLINT1 (Homo sapiens, UniProt P50750); assay: Microfluidic LabChip kinase inhibition assay, CDK9-CyclinT1; format: biochemical; details: Table 3a; 10 μM ATP; read-out: CDK9 CyclinT1 IC50
T1 construct: purchased Carna

[4] = biological target: CDK7 CyclinH (Homo sapiens, UniProt P50613); assay: Additional inhibition assay, CDK7 CyclinH; format: biochemical
[5] = biological target: T2, CDK2-CYCLINA (Homo sapiens, UniProt P24941); assay: Microfluidic LabChip kinase inhibition assay, CDK2-CyclinA; format: biochemical; details: 50 μM ATP
T2 construct: purchased Millipore

CDK1/B, sequence (P06493 whole entry): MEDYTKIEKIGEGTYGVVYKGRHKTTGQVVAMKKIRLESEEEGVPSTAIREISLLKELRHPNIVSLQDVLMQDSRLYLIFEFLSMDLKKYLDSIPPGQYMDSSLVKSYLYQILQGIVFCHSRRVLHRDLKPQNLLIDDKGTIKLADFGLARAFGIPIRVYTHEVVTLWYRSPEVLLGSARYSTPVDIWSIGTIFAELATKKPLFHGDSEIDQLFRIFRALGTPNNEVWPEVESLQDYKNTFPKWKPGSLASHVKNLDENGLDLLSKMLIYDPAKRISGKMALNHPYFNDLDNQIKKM
CDK1/B, sequence (P14635 whole entry partner): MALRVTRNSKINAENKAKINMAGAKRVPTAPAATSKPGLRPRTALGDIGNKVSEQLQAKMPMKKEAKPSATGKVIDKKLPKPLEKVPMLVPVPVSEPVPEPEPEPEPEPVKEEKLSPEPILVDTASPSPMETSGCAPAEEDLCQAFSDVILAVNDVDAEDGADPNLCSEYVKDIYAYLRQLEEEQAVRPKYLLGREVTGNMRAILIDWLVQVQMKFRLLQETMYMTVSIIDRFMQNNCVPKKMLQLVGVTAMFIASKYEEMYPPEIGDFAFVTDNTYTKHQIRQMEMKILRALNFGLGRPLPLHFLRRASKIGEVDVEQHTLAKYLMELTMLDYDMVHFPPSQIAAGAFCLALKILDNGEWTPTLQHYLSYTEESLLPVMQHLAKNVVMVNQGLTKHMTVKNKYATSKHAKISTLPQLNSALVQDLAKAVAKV
CDK4-CYCLIND1, sequence (P11802 whole entry): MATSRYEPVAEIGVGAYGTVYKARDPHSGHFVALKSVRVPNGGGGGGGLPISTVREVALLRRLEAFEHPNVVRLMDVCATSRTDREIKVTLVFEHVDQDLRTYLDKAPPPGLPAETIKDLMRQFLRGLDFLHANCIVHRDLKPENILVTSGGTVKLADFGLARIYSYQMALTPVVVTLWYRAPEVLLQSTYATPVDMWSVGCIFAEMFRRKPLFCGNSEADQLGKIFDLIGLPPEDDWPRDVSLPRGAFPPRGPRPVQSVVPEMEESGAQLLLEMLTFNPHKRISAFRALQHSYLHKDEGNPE
CDK4-CYCLIND1, sequence (P24385 whole entry partner): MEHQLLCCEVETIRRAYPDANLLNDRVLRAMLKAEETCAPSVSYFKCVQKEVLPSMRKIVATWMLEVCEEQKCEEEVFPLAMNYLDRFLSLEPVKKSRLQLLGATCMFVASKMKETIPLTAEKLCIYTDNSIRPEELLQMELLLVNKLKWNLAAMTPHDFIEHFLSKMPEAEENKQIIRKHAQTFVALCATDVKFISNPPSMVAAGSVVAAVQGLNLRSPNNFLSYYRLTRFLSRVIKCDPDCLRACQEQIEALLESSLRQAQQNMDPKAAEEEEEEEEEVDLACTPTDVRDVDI
CDK7 CyclinH, sequence (P50613 whole entry): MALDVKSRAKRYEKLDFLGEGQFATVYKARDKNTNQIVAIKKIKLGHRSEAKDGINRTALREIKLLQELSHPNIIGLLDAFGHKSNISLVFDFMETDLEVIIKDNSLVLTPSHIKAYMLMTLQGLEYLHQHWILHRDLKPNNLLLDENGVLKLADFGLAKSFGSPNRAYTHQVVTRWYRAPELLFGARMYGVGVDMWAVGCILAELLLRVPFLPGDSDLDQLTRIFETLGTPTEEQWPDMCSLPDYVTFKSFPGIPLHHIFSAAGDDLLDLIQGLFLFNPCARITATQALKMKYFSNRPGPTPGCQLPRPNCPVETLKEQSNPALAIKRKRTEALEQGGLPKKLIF
CDK7 CyclinH, sequence (P51946 whole entry partner): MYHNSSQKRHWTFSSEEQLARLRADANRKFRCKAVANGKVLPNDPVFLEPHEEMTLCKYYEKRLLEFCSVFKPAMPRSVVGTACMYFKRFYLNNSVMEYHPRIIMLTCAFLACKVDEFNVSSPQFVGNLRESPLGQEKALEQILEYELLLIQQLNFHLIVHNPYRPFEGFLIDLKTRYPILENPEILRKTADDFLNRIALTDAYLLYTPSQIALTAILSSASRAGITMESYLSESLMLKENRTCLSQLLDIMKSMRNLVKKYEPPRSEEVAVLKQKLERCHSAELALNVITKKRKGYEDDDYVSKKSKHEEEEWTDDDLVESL
CDK7 CyclinH, sequence (P51948 whole entry partner): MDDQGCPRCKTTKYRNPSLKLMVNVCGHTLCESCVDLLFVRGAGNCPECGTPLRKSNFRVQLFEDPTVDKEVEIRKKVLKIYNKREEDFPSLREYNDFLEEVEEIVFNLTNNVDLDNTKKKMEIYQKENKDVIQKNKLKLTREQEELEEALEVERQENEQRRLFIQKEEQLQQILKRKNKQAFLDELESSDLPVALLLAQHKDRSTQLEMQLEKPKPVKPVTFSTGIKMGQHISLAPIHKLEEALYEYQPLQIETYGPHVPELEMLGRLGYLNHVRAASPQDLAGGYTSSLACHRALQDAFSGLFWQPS
T1 sequence (P50750 whole entry): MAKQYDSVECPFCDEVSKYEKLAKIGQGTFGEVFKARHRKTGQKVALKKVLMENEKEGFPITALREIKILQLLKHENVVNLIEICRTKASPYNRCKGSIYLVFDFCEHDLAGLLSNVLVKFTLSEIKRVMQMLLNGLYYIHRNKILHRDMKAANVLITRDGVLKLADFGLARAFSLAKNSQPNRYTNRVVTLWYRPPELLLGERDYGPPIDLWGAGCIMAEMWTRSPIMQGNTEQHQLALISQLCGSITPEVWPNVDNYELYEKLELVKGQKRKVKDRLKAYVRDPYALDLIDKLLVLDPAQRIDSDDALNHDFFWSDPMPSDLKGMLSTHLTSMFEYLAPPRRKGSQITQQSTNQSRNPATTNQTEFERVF
T1 sequence (O60563 whole entry partner): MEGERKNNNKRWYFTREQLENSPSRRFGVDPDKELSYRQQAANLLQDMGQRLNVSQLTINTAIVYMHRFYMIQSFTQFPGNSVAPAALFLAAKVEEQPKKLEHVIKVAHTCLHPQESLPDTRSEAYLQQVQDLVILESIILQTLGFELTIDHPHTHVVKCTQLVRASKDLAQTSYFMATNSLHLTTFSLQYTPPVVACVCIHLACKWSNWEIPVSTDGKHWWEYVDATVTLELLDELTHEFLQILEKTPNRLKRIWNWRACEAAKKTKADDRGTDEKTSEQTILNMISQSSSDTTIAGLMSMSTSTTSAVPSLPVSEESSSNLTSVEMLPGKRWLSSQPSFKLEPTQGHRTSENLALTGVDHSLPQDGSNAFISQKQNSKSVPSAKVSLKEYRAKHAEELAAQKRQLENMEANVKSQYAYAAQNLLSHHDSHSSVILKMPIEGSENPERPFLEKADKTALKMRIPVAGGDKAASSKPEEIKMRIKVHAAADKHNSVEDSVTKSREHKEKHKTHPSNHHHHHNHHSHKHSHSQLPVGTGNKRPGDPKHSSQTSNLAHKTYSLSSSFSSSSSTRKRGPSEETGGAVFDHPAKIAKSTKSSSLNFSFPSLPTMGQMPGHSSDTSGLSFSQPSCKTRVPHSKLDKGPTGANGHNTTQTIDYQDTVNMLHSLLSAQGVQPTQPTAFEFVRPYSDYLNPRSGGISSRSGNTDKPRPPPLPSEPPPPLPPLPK

Row | SMILES | pIC50 ([1]; Table 3a) | pIC50 ([1]; Table 3b) | IC50 ([2]; Table 3a) | IC50 ([2]; Table 3b) | pIC50 [3] | pIC50 ([4]; Table 3a) | pIC50 ([4]; Table 3b) | pIC50 ([5]; Table 3a) | pIC50 ([5]; Table 3b)
1 | CN1CCN(c2ccc(Nc3ncc4c(n3)N(C3CCCC3)C3(CCNC3=O)C4)cc2)CC1 (stereo not drawn) [Compound C115, 7′-cyclopentyl-2′-((4-(4-methylpiperazin-1-yl)phenyl)amino)-5′,7′-dihydrospiro[pyrrolidine-3,6′-pyrrolo[2,3-d]pyrimidin]-2-one] | 5.04 | 5.04 | 0.116 µM | 0.116 µM | 6.83 | < 5.00 | < 5.00 | < 5.00 | < 5.00
2 | CC(C)N1CCN(c2ccc(Nc3ncc4c(n3)N(C3CCCC3)C3(CCNC3=O)C4)cc2F)CC1 (stereo not drawn) [Compound C118, 7′-cyclopentyl-2′-((3-fluoro-4-(4-isopropylpiperazin-1-yl)phenyl)amino)-5′,7′-dihydrospiro[pyrrolidine-3,6′-pyrrolo[2,3-d]pyrimidin]-2-one] | 5.42 | 5.42 | 0.0264 µM | 0.0264 µM | 7.80 | < 5.00 | < 5.00 | 5.31 | 5.31
3 | Cc1cc(Nc2ncc3c(n2)N(C2CCCC2)C2(CCNC2=O)C3)ccc1N1CCN(C(C)C)CC1 (stereo not drawn) [Compound C121, 7′-cyclopentyl-2′-((4-(4-isopropylpiperazin-1-yl)-3-methylphenyl)amino)-5′,7′-dihydrospiro[pyrrolidine-3,6′-pyrrolo[2,3-d]pyrimidin]-2-one] | < 5.00 | < 5.00 | 0.374 µM | 0.374 µM | 6.88 | < 5.00 | < 5.00 | < 5.00 | < 5.00
4 | COc1cc(Nc2ncc3c(n2)N(C2CCCC2)C2(CCNC2=O)C3)ccc1N1CCN(C)CC1 (stereo not drawn) [Compound C123, 7′-cyclopentyl-2′-((3-methoxy-4-(4-methylpiperazin-1-yl)phenyl)amino)-5′,7′-dihydrospiro[pyrrolidine-3,6′-pyrrolo[2,3-d]pyrimidin]-2-one] | < 5.00 | < 5.00 | 0.955 µM | 0.955 µM | 6.53 | < 5.00 | < 5.00 | < 5.00 | < 5.00
5 | CN1CCN(c2ccc(Nc3ncc4c(n3)N(C3CCCC3)C3(CCNC3=O)C4)cn2)CC1 (stereo not drawn) [Compound C129, 7′-cyclopentyl-2′-((6-(4-methylpiperazin-1-yl)pyridin-3-yl)amino)-5′,7′-dihydrospiro[pyrrolidine-3,6′-pyrrolo[2,3-d]pyrimidin]-2-one] | 5.07 | 5.07 | 0.103 µM | 0.103 µM | 7.20 | < 5.00 | < 5.00 | < 5.00 | < 5.00
6 | O=C1NCCC12Cc1cnc(Nc3ccc(N4CCC(N5CCOCC5)CC4)cc3)nc1N2C1CCCC1 (stereo not drawn) [Compound C131, 7′-cyclopentyl-2′-((4-(4-morpholinopiperidin-1-yl)phenyl)amino)-5′,7′-dihydrospiro[pyrrolidine-3,6′-pyrrolo[2,3-d]pyrimidin]-2-one] | < 5.00 | < 5.00 | 0.273 µM | 0.273 µM | 6.53 | < 5.00 | < 5.00 | < 5.00 | < 5.00
7 | O=C1NCCC12Cc1cnc(Nc3ccc(N4CCC(N5CCOCC5)CC4)c(F)c3)nc1N2C1CCCC1 (stereo not drawn) [Compound C132, 7′-cyclopentyl-2′-((3-fluoro-4-(4-morpholinopiperidin-1-yl)phenyl)amino)-5′,7′-dihydrospiro[pyrrolidine-3,6′-pyrrolo[2,3-d]pyrimidin]-2-one] | 5.16 | 5.16 | 0.0561 µM | 0.0561 µM | 7.40 | < 5.00 | < 5.00 | 5.02 | 5.02
8 | O=C1NCCC12Cc1cnc(Nc3ccc(N4CCC(N5CCOCC5)CC4)nc3)nc1N2C1CCCC1 (stereo not drawn) [Compound C133, 7′-cyclopentyl-2′-((6-(4-morpholinopiperidin-1-yl)pyridin-3-yl)amino)-5′,7′-dihydrospiro[pyrrolidine-3,6′-pyrrolo[2,3-d]pyrimidin]-2-one] | < 5.00 | < 5.00 | 0.202 µM | 0.202 µM | 6.90 | < 5.00 | < 5.00 | < 5.00 | < 5.00
9 | CN1CC2(C1)CN(c1ccc(Nc3ncc4c(n3)N(C3CCCC3)C3(CC(=O)NC3=O)C4)cc1F)C2 (stereo not drawn) [Compound C149, 7′-cyclopentyl-2′-((3-fluoro-4-(6-methyl-2,6-diazaspiro[3.3]heptan-2-yl)phenyl)amino)-5′,7′-dihydrospiro[pyrrolidine-3,6′-pyrrolo[2,3-d]pyrimidine]-2,5-dione] | < 5.00 | < 5.00 | 0.593 µM | 0.593 µM | 7.07 | < 5.00 | < 5.00 | < 5.00 | < 5.00
10 | CC(C)N1CC2(CN(c3ccc(Nc4ncc5c(n4)N(C4CCCC4)C4(CC(=O)NC4=O)C5)cc3)C2)C1 (stereo not drawn) [Compound C150, 7′-cyclopentyl-2′-((4-(6-isopropyl-2,6-diazaspiro[3.3]heptan-2-yl)phenyl)amino)-5′,7′-dihydrospiro[pyrrolidine-3,6′-pyrrolo[2,3-d]pyrimidine]-2,5-dione] | < 5.00 | < 5.00 | 0.522 µM | 0.522 µM | 6.57 | < 5.00 | < 5.00 | < 5.00 | < 5.00
11 | CN1CCC(c2ccc(Nc3ncc4c(n3)N(C3CCCC3)C3(CCNC3=O)C4)cc2)CC1 (stereo not drawn) [Compound C164, 7′-cyclopentyl-2′-((4-(1-methylpiperidin-4-yl)phenyl)amino)-5′,7′-dihydrospiro[pyrrolidine-3,6′-pyrrolo[2,3-d]pyrimidin]-2-one] | < 5.00 | < 5.00 | 0.167 µM | 0.167 µM | 6.93 | < 5.00 | < 5.00 | < 5.00 | < 5.00
12 | O=C1NCCC12Cc1cnc(Nc3ccc(OCCN4CCOCC4)cc3)nc1N2C1CCCC1 (stereo not drawn) [Compound C165, 7′-cyclopentyl-2′-((4-(2-morpholinoethoxy)phenyl)amino)-5′,7′-dihydrospiro[pyrrolidine-3,6′-pyrrolo[2,3-d]pyrimidin]-2-one] | < 5.00 | < 5.00 | 0.702 µM | 0.702 µM | 7.04 | < 5.00 | < 5.00 | < 5.00 | < 5.00
13 | Cn1cc(-c2ccc(Nc3ncc4c(n3)N(C3CCCC3)C3(CCNC3=O)C4)cc2)cn1 (stereo not drawn) [Compound C168, 7′-cyclopentyl-2′-((4-(1-methyl-1H-pyrazol-4-yl)phenyl)amino)-5′,7′-dihydrospiro[pyrrolidine-3,6′-pyrrolo[2,3-d]pyrimidin]-2-one] | < 5.00 | < 5.00 | 1.31 µM | 1.31 µM | 7.64 | < 5.00 | < 5.00 | < 5.00 | < 5.00
14 | O=C1NCCC12Cc1cnc(Nc3ccc(OCCN4CCCC4)nc3)nc1N2C1CCCC1 (stereo not drawn) [Compound C170, 7′-cyclopentyl-2′-((6-(2-(pyrrolidin-1-yl)ethoxy)pyridin-3-yl)amino)-5′,7′-dihydrospiro[pyrrolidine-3,6′-pyrrolo[2,3-d]pyrimidin]-2-one] | < 5.00 | < 5.00 | 0.233 µM | 0.233 µM | 7.55 | < 5.00 | < 5.00 | < 5.00 | < 5.00
15 | CN(C)[C@H]1CCN(c2ccc(Nc3ncc4c(n3)N(C3CCCC3)C3(CCNC3=O)C4)cc2F)C1 (stereo partly drawn) [Compound C173, 7′-cyclopentyl-2′-((4-((S)-3-(dimethylamino)pyrrolidin-1-yl)-3-fluorophenyl)amino)-5′,7′-dihydrospiro[pyrrolidine-3,6′-pyrrolo[2,3-d]pyrimidin]-2-one] | 5.08 | 5.08 | 0.109 µM | 0.109 µM | 7.47 | < 5.00 | < 5.00 | < 5.00 | < 5.00
16 | CN(C)[C@@H]1CCN(c2ccc(Nc3ncc4c(n3)N(C3CCCC3)C3(CCNC3=O)C4)cc2F)C1 (stereo partly drawn) [Compound C176, 7′-cyclopentyl-2′-((4-((R)-3-(dimethylamino)pyrrolidin-1-yl)-3-fluorophenyl)amino)-5′,7′-dihydrospiro[pyrrolidine-3,6′-pyrrolo[2,3-d]pyrimidin]-2-one] | 5.12 | 5.12 | 0.142 µM | 0.142 µM | 7.57 | < 5.00 | < 5.00 | < 5.00 | < 5.00
17 | CN(C)[C@H]1CCN(C(=O)c2ccc(Nc3ncc4c(n3)N(C3CCCC3)C3(CCNC3=O)C4)cc2)C1 (stereo partly drawn) [Compound C178, 7′-cyclopentyl-2′-((4-((S)-3-(dimethylamino)pyrrolidine-1-carbonyl)phenyl)amino)-5′,7′-dihydrospiro[pyrrolidine-3,6′-pyrrolo[2,3-d]pyrimidin]-2-one] | 5.98 | 5.98 | 0.0453 µM | 0.0453 µM | 8.06 | < 5.00 | < 5.00 | 6.17 | 6.17
